The target in assay [1] is T1, Cathepsin B (Homo sapiens, UniProt P07858). As to the kind of experiment: Inhibition of recombinant human liver CatB at 10 uM using Z-FR-AMC as substrate by fluorescence assay relative to control.
The target of the next assay is T2, Cathepsin K (Homo sapiens, UniProt P43235).
T2 sequence (P43235 whole entry): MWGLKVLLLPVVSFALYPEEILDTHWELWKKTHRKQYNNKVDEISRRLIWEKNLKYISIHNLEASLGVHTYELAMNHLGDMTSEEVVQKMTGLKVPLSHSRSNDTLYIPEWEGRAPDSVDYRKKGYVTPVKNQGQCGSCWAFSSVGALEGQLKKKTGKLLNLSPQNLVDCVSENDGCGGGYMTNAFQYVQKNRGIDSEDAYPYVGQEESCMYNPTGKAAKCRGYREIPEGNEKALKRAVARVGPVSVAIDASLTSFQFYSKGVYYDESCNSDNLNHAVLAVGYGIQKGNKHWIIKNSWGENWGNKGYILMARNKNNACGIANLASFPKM
Put plainly: Inhibition of recombinant human liver CatK using Z-FR-AMC as substrate by fluorescence assay.

For a further assay, the target named is Cruzipain (Trypanosoma cruzi, UniProt P25779). As to the kind of experiment: Inhibition of Trypanosoma cruzi cruzain using Z-FR-AMC as substrate by fluorescence assay.
Assay [2] addresses T3, Cathepsin S (Homo sapiens, UniProt P25774). As to the kind of experiment: Inhibition of recombinant human liver CatS using Z-FR-AMC as substrate by fluorescence assay.
Target sequence in this assay (P25774 whole entry): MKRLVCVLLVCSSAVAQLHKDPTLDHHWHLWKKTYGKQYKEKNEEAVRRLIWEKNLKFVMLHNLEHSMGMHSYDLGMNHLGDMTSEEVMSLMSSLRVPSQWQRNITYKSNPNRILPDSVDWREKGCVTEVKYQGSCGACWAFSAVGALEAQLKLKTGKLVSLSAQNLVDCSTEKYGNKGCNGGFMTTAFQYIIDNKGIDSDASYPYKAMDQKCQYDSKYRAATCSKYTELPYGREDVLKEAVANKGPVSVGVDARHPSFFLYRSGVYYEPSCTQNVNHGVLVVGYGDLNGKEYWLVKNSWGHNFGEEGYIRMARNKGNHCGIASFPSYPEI
Assay [3] concerns the target T4, Procathepsin L (Homo sapiens, UniProt P07711). Put plainly: Inhibition of recombinant human liver CatL at 10 uM using Z-FR-AMC as substrate by fluorescence assay relative to control.
Target sequence in this assay (P07711 114-333 limits assumed): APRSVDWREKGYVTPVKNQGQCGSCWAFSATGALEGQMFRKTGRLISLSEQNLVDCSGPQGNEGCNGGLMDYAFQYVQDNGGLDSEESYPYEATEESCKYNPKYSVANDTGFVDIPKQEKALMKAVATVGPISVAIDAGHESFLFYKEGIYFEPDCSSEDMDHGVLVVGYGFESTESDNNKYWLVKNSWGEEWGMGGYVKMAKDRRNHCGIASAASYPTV
The target in assay [4] is T3, Cathepsin S. As to the kind of experiment: Inhibition of recombinant human liver CatS at 10 uM using Z-FR-AMC as substrate by fluorescence assay relative to control.
Target sequence in this assay (P25774 115-331 limits assumed): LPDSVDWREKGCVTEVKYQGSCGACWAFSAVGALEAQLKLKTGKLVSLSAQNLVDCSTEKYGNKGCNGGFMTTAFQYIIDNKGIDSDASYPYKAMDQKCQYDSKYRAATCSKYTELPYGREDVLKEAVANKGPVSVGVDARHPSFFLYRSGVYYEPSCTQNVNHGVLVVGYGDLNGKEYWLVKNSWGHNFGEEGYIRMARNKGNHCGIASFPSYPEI
The target in assay [5] is T5, Cathepsin K (Homo sapiens) (UniProt P43235).
T5 sequence (whole entry): T2 sequence (P43235 whole entry)
As to the kind of experiment: Inhibition of recombinant human liver CatK at 10 uM using Z-FR-AMC as substrate by fluorescence assay relative to control.

Assay [6] addresses Cruzipain (Trypanosoma cruzi) (UniProt P25779). As to the kind of experiment: Inhibition of Trypanosoma cruzi cruzain at 10 uM using Z-FR-AMC as substrate by fluorescence assay relative to control.
The target in assay [7] is T4, Procathepsin L. Put plainly: Inhibition of recombinant human liver CatL using Z-FR-AMC as substrate by fluorescence assay.
Target sequence in this assay (P07711 whole entry): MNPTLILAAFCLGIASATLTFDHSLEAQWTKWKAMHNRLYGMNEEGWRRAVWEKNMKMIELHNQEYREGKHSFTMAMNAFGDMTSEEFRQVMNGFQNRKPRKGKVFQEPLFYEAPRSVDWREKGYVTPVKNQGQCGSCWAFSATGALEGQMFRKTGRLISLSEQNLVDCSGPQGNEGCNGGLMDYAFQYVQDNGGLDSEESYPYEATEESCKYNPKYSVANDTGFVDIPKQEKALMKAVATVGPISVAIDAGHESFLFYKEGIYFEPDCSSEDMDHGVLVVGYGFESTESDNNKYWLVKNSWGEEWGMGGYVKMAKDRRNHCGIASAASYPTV
In assay [8] the target is T1, Cathepsin B. Put plainly: Inhibition of recombinant human liver CatB using Z-FR-AMC as substrate by fluorescence assay.

Chain of Cruzipain (P25779 whole entry): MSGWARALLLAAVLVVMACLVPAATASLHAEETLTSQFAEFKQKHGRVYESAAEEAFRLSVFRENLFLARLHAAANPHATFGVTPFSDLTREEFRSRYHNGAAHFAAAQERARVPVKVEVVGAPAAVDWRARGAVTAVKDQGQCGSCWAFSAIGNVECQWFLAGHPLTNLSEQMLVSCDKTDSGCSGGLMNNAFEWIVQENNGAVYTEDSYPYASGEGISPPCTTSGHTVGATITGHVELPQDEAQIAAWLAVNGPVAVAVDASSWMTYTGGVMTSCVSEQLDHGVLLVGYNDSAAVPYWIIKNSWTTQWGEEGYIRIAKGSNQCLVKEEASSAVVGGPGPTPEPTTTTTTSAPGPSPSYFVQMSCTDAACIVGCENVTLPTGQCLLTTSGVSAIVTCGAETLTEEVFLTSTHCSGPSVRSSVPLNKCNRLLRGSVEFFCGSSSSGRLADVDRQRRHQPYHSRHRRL
Chain of Cruzipain (Trypanosoma cruzi) (P25779 123-467 limits assumed): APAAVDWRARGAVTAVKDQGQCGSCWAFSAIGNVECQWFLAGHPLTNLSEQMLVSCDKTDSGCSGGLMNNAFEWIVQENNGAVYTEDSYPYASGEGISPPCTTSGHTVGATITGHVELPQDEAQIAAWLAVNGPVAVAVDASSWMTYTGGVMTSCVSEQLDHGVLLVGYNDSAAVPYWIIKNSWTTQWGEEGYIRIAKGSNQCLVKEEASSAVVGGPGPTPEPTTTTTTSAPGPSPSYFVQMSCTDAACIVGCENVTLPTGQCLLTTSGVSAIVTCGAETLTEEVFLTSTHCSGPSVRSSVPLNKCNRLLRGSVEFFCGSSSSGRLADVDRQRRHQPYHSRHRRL

For orientation: inhibition means how much of the control response was suppressed. One may read the Ki as the equilibrium dissociation constant of an inhibitor or competing ligand from its target. `N#CC1(NC(=O)CN(Cc2ccccc2)C(=O)c2ccccc2)CC1`: the inhibition at Cathepsin B [1] was determined as 91%; at Procathepsin L [3], 82%. Moreover, the figures for the Ki at Cathepsin K, at Cruzipain and at Cathepsin S [2] were 398 nM, 7.94 µM and 5.01 µM, respectively.
Turning to `Cn1nc(C(C)(C)C)cc1C(=O)N(CC(=O)NCC#N)Cc1ccccc1`, the inhibition is 93% on Cathepsin B [1]; 84% at Cathepsin S [4]; 58% in [5]; more than 95% in assay [6]; 88% at Procathepsin L [3].
As for `N#CCNC(=O)CN(Cc1ccccc1)C(=O)c1cccc(I)c1`, the inhibition on Cathepsin B [1] is 87%; in assay [5], more than 95%; in assay [6], 34%. The Ki on Cathepsin S [2] is 10 µM; at Procathepsin L [7], 6.31 µM.
Turning to `N#CC1(NC(=O)[C@H](Cc2ccccc2)NC(=O)c2ccccc2)CC1`, the Ki on Cathepsin B [8] is 7.94 µM; at Cruzipain, 0.2 µM.
`N#CC1(NC(=O)CN(Cc2ccccc2)C(=O)c2ccc(-c3ccccc3)cc2)CC1`: the values for the inhibition (on Cathepsin S [4]; in assay [5]; at Procathepsin L [3]) were 89%, more than 95% and more than 95%, respectively. For the same molecule, the Ki at Cathepsin B [8] is 3.16 µM; at Cruzipain, 0.251 µM.
As for `N#CC1(NC(=O)CN(Cc2ccccc2)C(=O)Cc2ccccc2)CC1`, the inhibition is more than 95% on Cathepsin B [1], more than 95% at Cathepsin S [4], 58% in [5] and 87% at Procathepsin L [3]. Besides, on Cruzipain, the Ki is 2.51 µM.
For `Cn1nc(C(C)(C)C)cc1C(=O)N(CC(=O)NC1(C#N)CC1)Cc1ccccc1`, the inhibition on Cathepsin S [4] was more than 95%; in [5], 54%; on Procathepsin L [3], 85%. Also, the values for the inhibition constant Ki on Cathepsin B [8] and at Cruzipain were 3.98 µM and 6.31 µM, respectively.
Take `N#CCNC(=O)CN(Cc1ccccc1)C(=O)c1ccccc1`: the inhibition at Cathepsin B [1] is 85%; in [5], more than 95%. The values for the Ki at Cruzipain, at Cathepsin S [2] and at Procathepsin L [7] were 6.31 µM, 5.01 µM and 0.631 µM, respectively.
With `N#CCNC(=O)CN(Cc1ccccc1)S(=O)(=O)c1cccc(Cl)c1`, the inhibition on Cathepsin B [1] was more than 95%; in assay [5], 68%; in assay [6], 87%. The Ki is 2 µM on Cathepsin S [2] and 2.51 µM on Procathepsin L [7].
Consider `CC(C)(C#N)NC(=O)CN(Cc1ccccc1)C(=O)c1ccccc1`, for which the inhibition at Cathepsin B [1] was 90%; on Procathepsin L [3], more than 95%. Besides, the figures for the inhibitory constant (Ki) on Cathepsin K, on Cruzipain and on Cathepsin S [2] were 251 nM, 6.31 µM and 7.94 µM, respectively.
`COc1ccc(-c2ccc(C(=O)N(CC(=O)NCC#N)Cc3ccccc3)cc2)cc1`: the inhibition at Cathepsin B [1] was 83%; at Procathepsin L [3], more than 95%. The Ki is 2510 nM at Cathepsin K, 5.01 µM on Cruzipain and 0.794 µM on Cathepsin S [2].
Turning to `Cn1nc(C(C)(C)C)cc1C(=O)N(CC(=O)N[C@H](C#N)Cc1ccccc1)Cc1ccccc1`, the values for the inhibition (at Cathepsin B [1]; at Cathepsin S [4]; in [6]) were 80%, 84% and 87%, respectively. The Ki on Cathepsin K was 316 nM; at Procathepsin L [7], 3.16 µM.
For the molecule `Cn1nc(C(C)(C)C)cc1C(=O)N(CC(=O)NCC#N)Cc1cccc(Cl)c1`, the inhibition (at Cathepsin S [4]; in assay [5]; on Procathepsin L [3]) was more than 95% throughout. Also, the inhibition constant Ki at Cathepsin B [8] is 7.94 µM; on Cruzipain, 0.158 µM.
Take `N#CCNC(=O)CN(Cc1ccccc1)C(=O)c1ccc(-c2ccccc2)cc1`: the inhibition at Cathepsin B [1] was found to be 66%; in assay [5] it was 86%. Besides, the inhibition constant Ki on Cruzipain is 3.16 µM; at Cathepsin S [2] it was 6.31 µM; at Procathepsin L [7], 10 µM.
Regarding `COc1ccc(-c2ccc(C(=O)N(CC(=O)NC3(C#N)CC3)Cc3ccccc3)cc2)cc1`, the inhibition on Cathepsin B [1] amounted to 78%; on Procathepsin L [3] it was 68%. Further, the Ki was 10000 nM at Cathepsin K, 10 µM at Cruzipain and 3.98 µM at Cathepsin S [2].

The values are drawn from ChEMBL document CHEMBL4811270, “Nitrile-based peptoids as cysteine protease inhibitors” (Bioorg Med Chem, 2021).
